In one test the target is lethal factor (LF) (Bacillus anthracis, UniProt P15917). Kind of test: biochemical. The class given is biochemical.
Another test has as its target BoNT A (Clostridium botulinum, UniProt P0DPI0). The test is described as follows: biochemical.
The target in the next test is T1, MMP-2 (Homo sapiens, UniProt P08253).
T1 construct: purchased Anaspec, Inc. 71151/71155
T1 sequence (P08253 110-660): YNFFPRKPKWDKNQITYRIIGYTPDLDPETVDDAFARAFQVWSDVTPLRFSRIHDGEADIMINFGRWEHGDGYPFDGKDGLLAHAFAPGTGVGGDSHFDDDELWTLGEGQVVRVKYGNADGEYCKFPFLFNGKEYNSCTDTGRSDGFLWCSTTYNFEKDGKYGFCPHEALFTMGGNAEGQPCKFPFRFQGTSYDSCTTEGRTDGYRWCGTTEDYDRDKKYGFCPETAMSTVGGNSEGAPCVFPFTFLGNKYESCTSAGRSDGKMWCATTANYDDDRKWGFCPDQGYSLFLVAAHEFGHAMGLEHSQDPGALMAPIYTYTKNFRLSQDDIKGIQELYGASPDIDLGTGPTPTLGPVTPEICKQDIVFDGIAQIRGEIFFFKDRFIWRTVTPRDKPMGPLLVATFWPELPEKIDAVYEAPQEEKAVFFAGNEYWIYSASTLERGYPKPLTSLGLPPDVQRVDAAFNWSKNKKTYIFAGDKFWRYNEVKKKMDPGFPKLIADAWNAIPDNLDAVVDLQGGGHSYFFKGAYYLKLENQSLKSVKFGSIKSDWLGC
The test is described as follows: MMP-2 assay (Anaspec kit). The test is classed as biochemical.

A further test deals with T2, MMP-9 (Homo sapiens, UniProt P14780).
T2 construct: purchased Anaspec, Inc. 71151/71155
The test is described as follows: MMP-9 assay (Anaspec kit). The class given is biochemical.

Like-named read-outs stand apart in the source and are kept apart here.

As usually defined, the IC50 is the concentration needed to halve the response being measured.

T2 sequence (P14780 107-707 limits assumed): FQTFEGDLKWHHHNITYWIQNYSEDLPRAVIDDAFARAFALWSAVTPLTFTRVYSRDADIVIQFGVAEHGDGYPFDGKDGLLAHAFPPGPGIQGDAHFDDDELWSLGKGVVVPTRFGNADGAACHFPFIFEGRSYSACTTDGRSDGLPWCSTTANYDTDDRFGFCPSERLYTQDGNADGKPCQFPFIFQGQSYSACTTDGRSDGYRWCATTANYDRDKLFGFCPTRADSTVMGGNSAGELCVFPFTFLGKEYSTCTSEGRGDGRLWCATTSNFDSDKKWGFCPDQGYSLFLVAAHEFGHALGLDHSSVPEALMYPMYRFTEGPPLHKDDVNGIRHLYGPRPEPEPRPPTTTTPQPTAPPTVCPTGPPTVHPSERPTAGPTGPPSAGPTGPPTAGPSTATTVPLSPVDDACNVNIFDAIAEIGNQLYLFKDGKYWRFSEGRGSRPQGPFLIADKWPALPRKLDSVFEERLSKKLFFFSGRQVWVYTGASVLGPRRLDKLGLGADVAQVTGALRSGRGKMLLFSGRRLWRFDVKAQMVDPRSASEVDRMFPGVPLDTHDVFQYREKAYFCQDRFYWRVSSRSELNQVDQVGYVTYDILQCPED
BoNT A, sequence (P0DPI0 whole entry, looked up): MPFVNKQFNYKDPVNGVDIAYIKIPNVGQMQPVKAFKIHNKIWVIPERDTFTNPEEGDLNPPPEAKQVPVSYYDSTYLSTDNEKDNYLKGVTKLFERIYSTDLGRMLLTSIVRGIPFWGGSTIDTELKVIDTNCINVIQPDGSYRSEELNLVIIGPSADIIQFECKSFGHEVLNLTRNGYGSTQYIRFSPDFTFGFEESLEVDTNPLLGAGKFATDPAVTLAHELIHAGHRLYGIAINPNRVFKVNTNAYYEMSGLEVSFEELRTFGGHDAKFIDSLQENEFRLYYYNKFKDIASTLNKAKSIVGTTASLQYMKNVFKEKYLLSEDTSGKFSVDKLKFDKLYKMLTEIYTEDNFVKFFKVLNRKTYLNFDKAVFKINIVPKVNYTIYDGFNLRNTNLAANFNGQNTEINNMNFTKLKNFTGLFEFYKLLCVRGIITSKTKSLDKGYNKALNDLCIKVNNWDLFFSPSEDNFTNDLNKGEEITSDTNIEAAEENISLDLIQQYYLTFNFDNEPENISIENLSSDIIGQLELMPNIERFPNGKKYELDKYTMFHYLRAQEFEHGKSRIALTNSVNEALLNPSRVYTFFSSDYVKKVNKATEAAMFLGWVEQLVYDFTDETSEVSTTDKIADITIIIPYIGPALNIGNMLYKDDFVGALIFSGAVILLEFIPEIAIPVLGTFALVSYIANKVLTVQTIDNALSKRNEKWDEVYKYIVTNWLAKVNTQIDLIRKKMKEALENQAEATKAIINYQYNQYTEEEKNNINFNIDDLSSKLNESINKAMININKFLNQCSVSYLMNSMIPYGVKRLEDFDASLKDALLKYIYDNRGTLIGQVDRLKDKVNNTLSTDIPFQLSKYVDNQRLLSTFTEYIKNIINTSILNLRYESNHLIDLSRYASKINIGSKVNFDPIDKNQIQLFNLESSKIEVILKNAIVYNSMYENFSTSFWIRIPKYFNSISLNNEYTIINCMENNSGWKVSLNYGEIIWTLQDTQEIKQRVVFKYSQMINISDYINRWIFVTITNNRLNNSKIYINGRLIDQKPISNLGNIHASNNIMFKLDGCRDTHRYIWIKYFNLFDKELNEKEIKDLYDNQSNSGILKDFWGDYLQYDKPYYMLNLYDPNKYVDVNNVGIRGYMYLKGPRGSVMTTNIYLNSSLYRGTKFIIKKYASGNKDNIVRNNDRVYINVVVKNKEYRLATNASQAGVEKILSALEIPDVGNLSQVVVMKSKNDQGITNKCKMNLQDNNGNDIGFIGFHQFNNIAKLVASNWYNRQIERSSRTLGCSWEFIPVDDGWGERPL
lethal factor (LF), sequence (P15917 34-809 limits assumed): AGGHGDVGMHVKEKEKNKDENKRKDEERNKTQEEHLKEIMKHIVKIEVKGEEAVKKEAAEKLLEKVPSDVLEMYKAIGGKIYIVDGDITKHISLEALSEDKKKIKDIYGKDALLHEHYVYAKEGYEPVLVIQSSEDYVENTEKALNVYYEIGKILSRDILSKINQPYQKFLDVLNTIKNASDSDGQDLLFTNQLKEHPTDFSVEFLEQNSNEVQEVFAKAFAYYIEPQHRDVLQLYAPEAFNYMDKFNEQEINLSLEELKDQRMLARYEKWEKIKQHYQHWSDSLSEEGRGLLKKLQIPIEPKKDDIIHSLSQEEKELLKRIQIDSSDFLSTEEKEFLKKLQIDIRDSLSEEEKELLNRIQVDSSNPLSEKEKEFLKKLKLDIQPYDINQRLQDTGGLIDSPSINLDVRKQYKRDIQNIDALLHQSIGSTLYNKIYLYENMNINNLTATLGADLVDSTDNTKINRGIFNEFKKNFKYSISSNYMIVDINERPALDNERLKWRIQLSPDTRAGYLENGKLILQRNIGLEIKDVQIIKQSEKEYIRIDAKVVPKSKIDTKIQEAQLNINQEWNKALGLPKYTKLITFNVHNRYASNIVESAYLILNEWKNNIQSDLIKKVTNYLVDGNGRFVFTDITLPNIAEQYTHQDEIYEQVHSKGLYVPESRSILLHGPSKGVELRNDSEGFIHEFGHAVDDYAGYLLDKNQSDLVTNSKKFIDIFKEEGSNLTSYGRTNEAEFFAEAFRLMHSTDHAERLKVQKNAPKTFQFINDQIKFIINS

Regarding `O=C(O)CN1C(=O)/C(=C/c2cc(-c3ccco3)on2)SC1=S` [Compound 20, (Z)-2-(5-((5-(furan-2-yl)isoxazol-3-yl)methylene)-4-oxo-2-thioxothiazolidin-3-yl)acetic acid], the IC50 on lethal factor (LF) (pH 7.4, read-out: LF IC50) is 17 µM; against BoNT A, greater than 200 µM; on MMP-2 (read-out: MMP2 IC50) it was 39.4 µM.
Turning to `O=C(O)CN1C(=O)C(=Cc2cc(-c3ccccc3)on2)SC1=S` [Compound 21, 2-(4-oxo-2-thioxo-5-((5-phenylisoxazol-3-yl)methylene)thiazolidin-3-yl)acetic acid], the IC50 was 18.7 µM on lethal factor (LF), greater than 200 µM against BoNT A, greater than 100 µM against MMP-2 and 50 µM against MMP-9.
As for `Cc1ccc(-c2cc(C=C3SC(=S)N(CC(=O)O)C3=O)no2)cc1` [Compound 22, 2-(4-oxo-2-thioxo-5-((5-p-tolylisoxazol-3-yl)methylene)thiazolidin-3-yl)acetic acid], the IC50 at lethal factor (LF) is 5.9 µM; against BoNT A, 130 µM; against MMP-2, less than 10 µM; against MMP-9, greater than 100 µM.
Turning to `COc1ccc(-c2cc(C=C3SC(=S)N(CC(=O)O)C3=O)no2)cc1` [Compound 23, 2-(5-((5-(4-methoxyphenyl)isoxazol-3-yl)methylene)-4-oxo-2-thioxothiazolidin-3-yl)acetic acid], the IC50 at BoNT A is 194 µM; at MMP-2, 6.62 µM; against MMP-9 it was greater than 100 µM.
On to `O=C(O)CN1C(=O)C(=Cc2cc(-c3ccc(Cl)cc3)on2)SC1=S` [Compound 24, 2-(5-((5-(4-chlorophenyl)isoxazol-3-yl)methylene)-4-oxo-2-thioxothiazolidin-3-yl)acetic acid], for which the IC50 at BoNT A was 82.7 µM; at MMP-2 it was 19.2 µM; against MMP-9, greater than 100 µM.
In the case of `O=C(O)CN1C(=O)C(=Cc2cc(-c3ccc(F)cc3)on2)SC1=S` [Compound 25, 2-(5-((5-(4-fluorophenyl)isoxazol-3-yl)methylene)-4-oxo-2-thioxothiazolidin-3-yl)acetic acid], the IC50 was 12.4 µM against lethal factor (LF), greater than 200 µM against BoNT A, 10 µM against MMP-2 and greater than 100 µM against MMP-9.
In the same order, the values of `O=C(O)CN1C(=O)C(=Cc2cc(-c3ccc(Br)cc3)on2)SC1=S` [Compound 26, 2-(5-((5-(4-bromophenyl)isoxazol-3-yl)methylene)-4-oxo-2-thioxothiazolidin-3-yl)acetic acid] are 17.3 µM, greater than 200 µM, greater than 100 µM and 27.4 µM.
In the case of `O=C(O)CN1C(=O)/C(=C/c2cn(-c3ccc(F)cc3F)nc2-c2cccnc2)SC1=S` [Compound 32, (Z)-2-(5-((1-(2,4-difluorophenyl)-3-(pyridin-3-yl)-1H-pyrazol-4-yl)methylene)-4-oxo-2-thioxothiazolidin-3-yl)acetic acid], the IC50 at lethal factor (LF) (pH 7.4, read-out: LF IC50) was 2.99 µM; against BoNT A, 71.5 µM; on MMP-2, 13.7 µM.
In the same order, the values of `O=C(O)CN1C(=O)/C(=C/c2cn(-c3ccc(F)cc3)nc2-c2ccc(F)cc2)SC1=S` [Compound 33, (Z)-2-(5-((1,3-bis(4-fluorophenyl)-1H-pyrazol-4-yl)methylene)-4-oxo-2-thioxothiazolidin-3-yl)acetic acid] are 4.22 µM, 52.6 µM and 39.4 µM.
On to `O=C(O)CN1C(=O)/C(=C/c2cn(-c3ccc(Br)cc3)nc2-c2ccc(Br)cc2)SC1=S` [Compound 35, (Z)-2-(5-((1,3-bis(4-bromophenyl)-1H-pyrazol-4-yl)methylene)-4-oxo-2-thioxothiazolidin-3-yl)acetic acid], for which the IC50 at lethal factor (LF) (pH 7.4, read-out: LF IC50) was determined as 3.35 µM; on BoNT A, 5.45 µM. Also, the “inhibition of MMP-2 (in words)” value on MMP-2 is recorded as “did not inhibit”. Also, the “inhibition of MMP-9 (in words)” value on MMP-9 is “did not inhibit”.
`O=C1/C(=C/c2cn(-c3ccccc3)nc2-c2ccc(Cl)cc2)SC(=S)N1CCS(=O)(=O)O` [Compound 41, (Z)-2-(5-((3-(4-chlorophenyl)-1-phenyl-1H-pyrazol-4-yl)methylene)-4-oxo-2-thioxothiazolidin-3-yl)ethanesulfonic acid]: the IC50 is 3.66 µM on lethal factor (LF) (pH 7.4, read-out: LF IC50); greater than 200 µM against BoNT A; 26.9 µM against MMP-2.
Regarding `O=C1/C(=C/c2cn(-c3ccccc3)nc2-c2ccc(S(=O)(=O)N3CCOCC3)cc2)SC(=S)N1CCS(=O)(=O)O` [Compound 42, (Z)-2-(5-((3-(4-(morpholinosulfonyl)phenyl)-1-phenyl-1H-pyrazol-4-yl)methylene)-4-oxo-2-thioxothiazolidin-3-yl)ethanesulfonic acid], the IC50 is 1.86 µM on lethal factor (LF) (pH 7.4, read-out: LF IC50) and 85 µM on BoNT A.
Turning to `O=C1/C(=C/c2cn(-c3ccccc3)nc2-c2ccc(S(=O)(=O)N3CCCCC3)cc2)SC(=S)N1CCS(=O)(=O)O` [Compound 43, (Z)-2-(4-oxo-5-((1-phenyl-3-(4-(piperidin-1-ylsulfonyl)phenyl)-1H-pyrazol-4-yl)methylene)-2-thioxothiazolidin-3-yl)ethanesulfonic acid], the IC50 amounted to 2.07 µM on lethal factor (LF) (pH 7.4, read-out: LF IC50) and 20.1 µM at BoNT A.
For the molecule `CCOc1ccc(-c2nn(-c3ccccc3)cc2/C=C2\SC(=S)N(CC(=O)O)C2=O)cc1F` [Compound 46, (Z)-2-(5-((3-(4-ethoxy-3-fluorophenyl)-1-phenyl-1H-pyrazol-4-yl)methylene)-4-oxo-2-thioxothiazolidin-3-yl)acetic acid], the IC50 is 3.45 µM at lethal factor (LF) (pH 7.4, read-out: LF IC50) and greater than 200 µM on BoNT A.
In the case of `O=C(O)CN1C(=O)/C(=C/c2sc(Br)c3c2OCCO3)SC1=S` [Compound 47, (Z)-2-(5-((7-bromo-2,3-dihydrothieno[3,4-b][1,4]dioxin-5-yl)methylene)4-oxo-2-thioxothiazolidin-3-yl)acetic acid], the IC50 was 11.4 µM on lethal factor (LF) (pH 7.4, read-out: LF IC50); greater than 200 µM against BoNT A; 50.6 µM on MMP-2 (read-out: MMP2 IC50).
Regarding `O=C(O)CN1C(=O)/C(=C/c2ccc(-c3ccccc3)cc2)SC1=S` [Compound 49, (Z)-2-(5-(4-phenylbenzylidene)-4-oxo-2-thioxothiazolidin-3-yl)acetic acid], the IC50 at lethal factor (LF) (pH 7.4, read-out: LF IC50) stood at 6.2 µM; against BoNT A, 54.6 µM.
In the same order, the values of `O=C(O)CN1C(=O)/C(=C/c2cccc(N3CCCC3)c2)SC1=S` [Compound 50, (Z)-2-(5-(3-(pyrrolidin-1-yl)benzylidene)-4-oxo-2-thioxothiazolidin-3-yl)acetic acid] are 28.1 µM and greater than 200 µM.
In the same order, the values of `O=C(O)CN1C(=O)/C(=C/c2cccc(-n3cccn3)c2)SC1=S` [Compound 52, (Z)-2-(5-(3-(1H-pyrazol-1-yl)benzylidene)-4-oxo-2-thioxothiazolidin-3-yl)acetic acid] are 27.9 µM and greater than 200 µM.
`O=C(O)CN1C(=O)/C(=C/c2ccc3c(c2)OCO3)SC1=S` [Compound 53, (Z)-2-(5-(benzo[d][1,3]dioxol-5-ylmethylene)-4-oxo-2-thioxothiazolidin-3-yl)acetic acid]: the IC50 at lethal factor (LF) (pH 7.4, read-out: LF IC50) was 83.3 µM; against BoNT A, greater than 200 µM.
Take `Cc1ccc2cc(/C=C3\SC(=S)N(CC(=O)O)C3=O)ccc2n1` [Compound 54, (Z)-2-(5-((2-methylquinolin-6-yl)methylene)-4-oxo-2-thioxothiazolidin-3-yl)acetic acid]: the IC50 on lethal factor (LF) (pH 7.4, read-out: LF IC50) was 5.25 µM; against BoNT A, greater than 200 µM; on MMP-2 (read-out: MMP2 IC50), 18 µM.
With `O=C(O)CN1C(=O)/C(=C/c2cccc3c2oc2ccccc23)SC1=S` [Compound 55, (Z)-2-(5-(dibenzofuran-6-ylmethylene)-4-oxo-2-thioxothiazolidin-3-yl)acetic acid], the IC50 on lethal factor (LF) (pH 7.4, read-out: LF IC50) is 2.96 µM; against BoNT A, 160 µM.
For `O=C(O)CN1C(=O)/C(=C/c2cccc(Br)n2)SC1=S` [Compound 56, (Z)-2-(5-((6-bromopyridin-2-yl)methylene)-4-oxo-2-thioxothiazolidin-3-yl)acetic acid], the IC50 on lethal factor (LF) (pH 7.4, read-out: LF IC50) was 58 µM; against BoNT A it was greater than 200 µM.
In the same order, the values of `O=C(O)CN1C(=O)/C(=C/c2csc3ccccc23)SC1=S` [Compound 57, (Z)-2-(5-(benzo[b]thiophen-3-ylmethylene)-4-oxo-2-thioxothiazolidin-3-yl)acetic acid] are 13 µM and greater than 200 µM.
In the same order, the values of `O=C(O)CN1C(=O)/C(=C/c2cc3nccnc3s2)SC1=S` [Compound 59] are 24.9 µM and greater than 200 µM.
For `O=C(O)CN1C(=O)/C(=C/c2c[nH]c3ccccc23)SC1=S` [Compound 60, (Z)-2-(5-((1H-indol-3-yl)methylene)-4-oxo-2-thioxothiazolidin-3-yl)acetic acid], in that order: 38.7 µM and greater than 200 µM.
Take `O=C(O)CN1C(=O)/C(=C/c2c[nH]c3ccc(Br)cc23)SC1=S` [Compound 61, (Z)-2-(5-((5-bromo-1H-indol-3-yl)methylene)-4-oxo-2-thioxothiazolidin-3-yl)acetic acid]: the IC50 at lethal factor (LF) (pH 7.4, read-out: LF IC50) was 7.04 µM; on BoNT A, greater than 200 µM.
